From publication PMC4811591, “Role of the Substrate Specificity-Defining Residues of Human SIRT5 in Modulating the Structural Stability and Inhibitory Features of the Enzyme” (PLoS ONE, 2016)
Numbering of substitutions follows the chain as printed. Blank lines part the entries; values can stand above or below the molecule they belong to.

Experiments:
SIRT1 [1] = target: T1, SIRT1 (Homo sapiens, UniProt Q96EB6); test: SIRT1 desuccinylation reaction, trypsin coupled assay with Ac-SucLys-AMC; format: biochemical; conditions: succinyl substrate
T1 construct: SIRT1 (193–747) and SIRT5 (51–301) were cloned into the pLIC-His expression vector; His tag (pLIC-His vector); made in house; host or cells: E. coli BL21(DE3) Star
T1 sequence (Q96EB6 193-747): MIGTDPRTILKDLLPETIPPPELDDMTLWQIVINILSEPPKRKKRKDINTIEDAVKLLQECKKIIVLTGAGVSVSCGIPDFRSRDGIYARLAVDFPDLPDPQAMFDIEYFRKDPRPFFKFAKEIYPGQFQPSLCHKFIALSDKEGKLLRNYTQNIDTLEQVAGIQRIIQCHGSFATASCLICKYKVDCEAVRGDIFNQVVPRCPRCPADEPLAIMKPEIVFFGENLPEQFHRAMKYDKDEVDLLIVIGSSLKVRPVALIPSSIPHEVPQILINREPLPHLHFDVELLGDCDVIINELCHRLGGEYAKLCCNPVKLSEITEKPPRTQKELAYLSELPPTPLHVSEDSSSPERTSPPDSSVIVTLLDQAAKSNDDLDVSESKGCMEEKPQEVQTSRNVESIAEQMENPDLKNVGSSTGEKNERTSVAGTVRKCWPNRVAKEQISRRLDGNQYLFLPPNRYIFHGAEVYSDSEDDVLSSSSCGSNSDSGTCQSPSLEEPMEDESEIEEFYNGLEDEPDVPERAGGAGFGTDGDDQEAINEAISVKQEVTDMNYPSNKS
Procedure: (§1) The sirtuin catalyzed deacetylase and desuccinylase reactions were measured via the trypsin coupled assay system as described by Madsen et al. The enzyme reactions were carried out at 25°C in 50 mM Tris-HCl assay buffer, pH 8.0, containing 137 mM NaCl, 2.7 mM KCl, 1 mM MgCl2, and 1 mg/mL bovine serum albumin. Since trypsin was used as a coupling enzyme, its concentration was optimized to ensure the emergence of minimal or negligible lag-phase prior to the onset of the steady state phase. The bi-substrate kinetic experiments were performed by varying the concentrations of NAD^+ (from 100 to 500 μM) and Ac-SucLys-AMC or Fluor-de-lys® substrates (from 100 μM to 1200 μM) using 0.8 μM trypsin as the coupling enzyme. The steady state rates of the enzyme catalyzed reactions were derived from the time dependent changes in the fluorescence signal, and the data were analyzed by the ternary complex kinetic mechanism (Eq 4) via Grafit 4 software.

SIRT5 wild type [2] = target: T2, SIRT5 wild type (Homo sapiens, UniProt Q9NXA8); test: SIRT5 wild type desuccinylation reaction, trypsin coupled fluorescence assay with Ac-SucLys-AMC; format: biochemical; conditions: for IC50: SIRT5 desuccinylation
T2 construct: SIRT1 (193–747) and SIRT5 (51–301) were cloned into the pLIC-His expression vector; His tag (pLIC-His vector); made in house; host or cells: E. coli BL21(DE3) Star
T2 sequence (Q9NXA8 51-301): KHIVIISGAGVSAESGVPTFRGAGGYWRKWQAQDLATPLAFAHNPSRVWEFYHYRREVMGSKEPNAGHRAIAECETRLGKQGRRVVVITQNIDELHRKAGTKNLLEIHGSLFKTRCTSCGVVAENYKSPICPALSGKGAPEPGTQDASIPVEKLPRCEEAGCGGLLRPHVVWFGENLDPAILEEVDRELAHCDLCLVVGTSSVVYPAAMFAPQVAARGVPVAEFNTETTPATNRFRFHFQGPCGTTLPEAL
Procedure: (§2) The sirtuin catalyzed deacetylase and desuccinylase reactions were measured via the trypsin coupled assay system as described by Madsen et al. […] Since trypsin was used as a coupling enzyme, its concentration was optimized to ensure the emergence of minimal or negligible lag-phase prior to the onset of the steady state phase. […] The steady state rates of the enzyme catalyzed reactions were derived from the time dependent changes in the fluorescence signal, and the data were analyzed by the ternary complex kinetic mechanism (Eq 4) via Grafit 4 software.
(§3) The steady-state kinetic data were fitted globally by the competitive, mixed, and noncompetitive inhibition models using the DYNAFIT software based on the rapid-equilibrium approximation. All the parameters were allowed to float except for the enzyme concentration. The software utilizes several model-discrimination criteria, including the second order Akaike Information Criterion (AIC), so that the best model out of the three different candidates could be identified.
(§4) Other reaction conditions were the same as described above. The data were fitted by Eq 5 by Grafit 4.0.

SIRT5 Y102A [3] = target: T3, SIRT5 Y102A (Homo sapiens, UniProt Q9NXA8, Y102A); test: SIRT5 Y102A desuccinylation reaction, trypsin coupled assay with Ac-SucLys-AMC; format: biochemical
T3 construct: SIRT1 (193–747) and SIRT5 (51–301) were cloned into the pLIC-His expression vector; His tag (pLIC-His vector); made in house; host or cells: E. coli BL21(DE3) Star
T3 sequence (Q9NXA8 51-301 Y102A): T2 sequence (Q9NXA8 51-301) with Y52A
Procedure: as §2, §3, §4

SIRT1 [4] = target: T1, SIRT1; test: SIRT1 deacetylation reaction, trypsin coupled assay with Fluor-de-lys; format: biochemical; conditions: for IC50: SIRT1 deacetylation
Procedure: as §2, §3, §4

SIRT5-substrate complex = target: T4, SIRT5-substrate complex (Homo sapiens, UniProt Q9NXA8); test: Isothermal titration calorimetry, binding of nicotinamide to SIRT5-substrate complex; conditions: ITC, 20 μM SIRT5 in the presence of 1 mM Ac-Suclys-AMC
T4 construct: SIRT1 (193–747) and SIRT5 (51–301) were cloned into the pLIC-His expression vector; His tag (pLIC-His vector); made in house; host or cells: E. coli BL21(DE3) Star
T4 sequence (Q9NXA8 51-301): T2 sequence (Q9NXA8 51-301)
Procedure: (§5) Isothermal titration calorimetric experiment was performed in duplicates on a VP-ITC device (Microcal Inc., Northampton, MA). Prior to the titration experiment, both enzyme and inhibitor were thoroughly degassed under vacuum. […] The data were analyzed by the ITC data analysis module of Origin Software using the single-site binding model as described by Wiseman et al. All the parameters were allowed to vary during the curve-fitting. […] The binding free energy (ΔG°) and the entropic (ΔS°) changes were calculated by Eqs 6 and 7, respectively ΔG°=−RTlnKa (6) ΔS°=ΔH°−ΔG°/T (7)
(TIF) Click here for additional data file.

SIRT5 R105I [5] = target: T5, SIRT5 R105I (Homo sapiens, UniProt Q9NXA8, R105I); test: SIRT5 R105I deacetylation reaction, trypsin coupled assay with Fluor-de-lys; format: biochemical
T5 construct: SIRT1 (193–747) and SIRT5 (51–301) were cloned into the pLIC-His expression vector; His tag (pLIC-His vector); made in house; host or cells: E. coli BL21(DE3) Star
T5 sequence (Q9NXA8 51-301 R105I): T2 sequence (Q9NXA8 51-301) with R55I
Procedure: as §2, §3, §4

SIRT5 Y102A/R105I [6] = target: T6, SIRT5 Y102A/R105I (Homo sapiens, UniProt Q9NXA8, R105I/Y102A); test: SIRT5 Y102A/R105I deacetylation reaction, trypsin coupled assay with Fluor-de-lys; format: biochemical
T6 construct: SIRT1 (193–747) and SIRT5 (51–301) were cloned into the pLIC-His expression vector; His tag (pLIC-His vector); made in house; host or cells: E. coli BL21(DE3) Star
T6 sequence (Q9NXA8 51-301 Y102A/R105I): T2 sequence (Q9NXA8 51-301) with Y52A, R55I
Procedure: as §2, §3, §4

SIRT5 Y102A [7] = target: T3, SIRT5 Y102A; test: SIRT5 Y102A deacetylation reaction, trypsin coupled assay with Fluor-de-lys; format: biochemical
Procedure: as §2, §3, §4

SIRT5 R105I [8] = target: T5, SIRT5 R105I; test: SIRT5 R105I desuccinylation reaction, trypsin coupled assay with Ac-SucLys-AMC; format: biochemical
Procedure: as §1
(§6) The steady-state kinetic data were fitted globally by the competitive, mixed, and noncompetitive inhibition models using the DYNAFIT software based on the rapid-equilibrium approximation. All the parameters were allowed to float except for the enzyme concentration. […]

SIRT5 wild type [9] = target: T2, SIRT5 wild type; test: SIRT5 wild type deacetylation reaction, trypsin coupled fluorescence assay with Fluor-de-lys; format: biochemical; conditions: 50 μM EX527; substrate not stated in the sentence (method: 100 μM Fluor-de-lys, 500 μM NAD^+)
Procedure: as §1, §6

SIRT5 Y102A/R105I [10] = target: T6, SIRT5 Y102A/R105I; test: Isothermal titration calorimetry, binding of EX527 to SIRT5 Y102A/R105I; conditions: ITC
Procedure: as §5, with “vacuum. The sample cell was filled with 1.8 mL (effective volume = 1.4 mL) of 20 μM Y102A/R105I mutant SIRT5 and 0 or 10 mM NAD^+ in 50 mM HEPES buffer, pH 7.5, containing 100 mM NaCl, 10% glycerol and 1 mM TCEP.” for “vacuum.”
The latter value translates to the ΔG° of binding as being equal to −7.3 ± 0.1 kcal/mol. Given the ΔH° and ΔG° values, the TΔS° was calculated to be 2.03 kcal/mol.

wild type SIRT5 = target: T7, wild type SIRT5 (Homo sapiens, UniProt Q9NXA8); test: Isothermal titration calorimetry, binding of EX527 to wild type SIRT5; conditions: ITC, either in the absence or the presence of NAD^+ (10 mM)
T7 construct: SIRT1 (193–747) and SIRT5 (51–301) were cloned into the pLIC-His expression vector; His tag (pLIC-His vector); made in house; host or cells: E. coli BL21(DE3) Star
T7 sequence (Q9NXA8 51-301): T2 sequence (Q9NXA8 51-301)

SIRT5 = system: SIRT5; set-up: method as in PMID 22583019; conditions: same succinylated substrate, fixed substrate concentration; read-out: Km,NAD (apparent); cited from earlier work
[11] = desuccinylation, succinyl substrate
[12] = deacetylation, against NAD^+, 100 μM Fluo-de-lys, NAD^+ 40 to 300 μM
[13] = deacetylation, against NAD^+, 500 μM Fluo-de-lys, NAD^+ 200 to 1300 μM
[14] = deacetylation, acetylated substrate, at 800 μM nicotinamide

desuccinylase activity (SIRT1 [1]): no detectable desuccinylase activity
kcat (SIRT5 wild type [2]; [11]): 383.2 ± 38.3 ×10^−5 s^-1
Km (SIRT5 wild type [2]; desuccinylation, succinyl substrate, 25°C, pH 8.0, read-out: Km,sub): 290 ± 29 µM
kcat (SIRT5 Y102A [3]; [11]): 27.4 ± 4.9 ×10^−5 s^-1
Km (SIRT5 Y102A [3]; desuccinylation, succinyl substrate, read-out: Km,sub): 300 ± 54 µM
SMILES: CC(=O)N[C@@H](CCCCNC(=O)CCC(=O)O)C(=O)Nc1ccc2c(C)cc(=O)oc2c1 [Ac-SucLys-AMC]

IC50 (SIRT5 wild type [2]; in the presence of 50 μM NAD^+): 11.1 ± 2.2 mM
IC50 (SIRT5 wild type [2]; in the presence of 5 mM NAD^+): 17.1 ± 4 mM
IC50 (SIRT1 [4]; in the presence of 50 μM NAD^+): 7 ± 2.9 mM
IC50 (SIRT1 [4]; in the presence of 5 mM NAD^+): 8.9 ± 3.3 mM
SMILES: NC(=O)c1ccncc1 [isonicotinamide]

SMILES: NC(=O)c1cccnc1 [Nicotinamide]
Ka (SIRT5-substrate complex): (2.5 ± 0.3) × 10^4 M^-1
inhibition at 800 µM (SIRT5 R105I [5]): 40%
Inhibition Mode (SIRT5 wild type [2]; desuccinylation, against NAD^+, 100 μM Ac-SucLys-AMC, NAD^+ 40 to 300 μM): Competitive
Inhibition Mode (SIRT5 Y102A [3]; desuccinylation, against NAD^+, 500 μM Ac-SucLys-AMC, NAD^+ 70 to 800 μM): Competitive
Inhibition Mode (SIRT1 [4]; [12]): Mixed
Ki’ (mixed inhibition) (SIRT1 [4]; [12]): 0.3405 ± 0.1024 mM
Inhibition Mode (SIRT5 Y102A/R105I [6]; [13]): Mixed
Ki’ (mixed inhibition) (SIRT5 Y102A/R105I [6]; [13]): 0.2672 ± 0.0524 mM
% inhibition (SIRT5 Y102A [7]; [14]): N/A, 36% inhibition at 800μM
inhibition at 800 µM (SIRT5 Y102A [7]; [14]): ~36%

SMILES: NC(=O)C1CCCc2c1[nH]c1ccc(Cl)cc21 (centres unmarked) [EX527, 6-chloro-2,3,4,9-tetrahydro-1H-carbazole-1-carboxamide]
inhibition at 50 µM (SIRT5 R105I [8]): ~22%
inhibition by EX527 (SIRT5 wild type [9]): not inhibited
inhibition at 50 µM (SIRT5 R105I [5]): ~22%
binding (SIRT5 Y102A/R105I [10]; in the absence of NAD^+): binds weakly
ΔH° (SIRT5 Y102A/R105I [10]; presence of 10 mM NAD^+, pH 7.5, 25°C): -5.3 ± 0.1 kcal/mol
stoichiometry n (SIRT5 Y102A/R105I [10]; presence of 10 mM NAD^+, pH 7.5, 25°C, single site binding model): 1.2
ΔG° of binding (SIRT5 Y102A/R105I [10]; presence of 10 mM NAD^+, calculated from Ka): -7.3 ± 0.1 kcal/mol
TΔS° (SIRT5 Y102A/R105I [10]; presence of 10 mM NAD^+, calculated from ΔH° and ΔG°): 2.03 kcal/mol
inhibition by EX527 (SIRT5 Y102A [3]; 50 μM EX527, succinylated substrate): no inhibition
binding (heat signals) (wild type SIRT5): only miniscule heat signals
IC50 (SIRT5 Y102A/R105I [6]): 0.0217 ± 0.001 mM
inhibition at 50 µM (SIRT5 Y102A [7]): ~14%

SMILES: NC(=O)c1ccc[n+]([C@@H]2O[C@H](COP(=O)([O-])OP(=O)(O)OC[C@H]3O[C@@H](n4cnc5c(N)ncnc54)[C@H](O)[C@@H]3O)[C@@H](O)[C@H]2O)c1 [NAD, nicotinamide adenine dinucleotide]
Km (SIRT5): 150 ± 45 µM
